# In article PMC11832467, “Novel mitochondrial-targeted alkyl chains act as fungal specific inhibitors of C. neoformans” (Frontiers in Microbiology, 2025):
# Like-named read-outs stand apart in the source and are kept apart here.
# Tests used:
# cytochrome bc1 complex = molecular target: T1, cytochrome bc1 complex (Candida albicans, UniProt A0A1D8PJX3+P0C8L0); assay: cytochrome bc1 activity, dose response (assay not described); assay type: cell-based
# T1 construct: gene COB; native multi-subunit complex III; preparation and assay not given; with Cytochrome c1, heme protein, mitochondrial
# T1 sequence (P0C8L0 1-387): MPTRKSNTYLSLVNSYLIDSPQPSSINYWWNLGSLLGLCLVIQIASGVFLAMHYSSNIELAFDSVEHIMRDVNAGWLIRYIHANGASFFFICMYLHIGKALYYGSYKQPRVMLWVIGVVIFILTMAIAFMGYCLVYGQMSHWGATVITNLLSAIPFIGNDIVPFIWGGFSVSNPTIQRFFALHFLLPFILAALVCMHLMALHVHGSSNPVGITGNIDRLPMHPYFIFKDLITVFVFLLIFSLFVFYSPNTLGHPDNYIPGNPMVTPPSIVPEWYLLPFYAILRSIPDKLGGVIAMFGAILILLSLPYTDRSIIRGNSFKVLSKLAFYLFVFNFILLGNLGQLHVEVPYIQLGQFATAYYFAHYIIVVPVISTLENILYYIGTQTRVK
# T1 sequence (A0A1D8PJX3 30-213): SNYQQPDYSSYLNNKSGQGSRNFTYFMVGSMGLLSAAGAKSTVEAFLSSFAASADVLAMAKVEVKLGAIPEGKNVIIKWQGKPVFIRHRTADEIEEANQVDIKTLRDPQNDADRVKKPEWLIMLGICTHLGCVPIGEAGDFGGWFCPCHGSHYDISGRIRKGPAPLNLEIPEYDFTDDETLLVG
# T1 sequence (A0A1D8PHA3 43-288 partner): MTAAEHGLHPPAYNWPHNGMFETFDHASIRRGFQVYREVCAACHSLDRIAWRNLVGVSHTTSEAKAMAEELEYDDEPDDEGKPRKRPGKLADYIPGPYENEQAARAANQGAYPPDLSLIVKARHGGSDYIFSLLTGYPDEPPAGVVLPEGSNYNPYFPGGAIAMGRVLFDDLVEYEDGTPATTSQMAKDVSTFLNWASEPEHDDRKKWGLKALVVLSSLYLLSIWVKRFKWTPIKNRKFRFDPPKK
# From the text: cytochrome bc1 activity, dose response (assay not described) on cytochrome bc1 complex
# C. albicans Aox2 (rAox2) = molecular target: T2, C. albicans Aox2 (rAox2) (Candida albicans, UniProt Q9UV71); assay: NADH oxidation at […] nm, E. coli membranes; assay type: biochemical
# T2 sequence (Q9UV71 1-365): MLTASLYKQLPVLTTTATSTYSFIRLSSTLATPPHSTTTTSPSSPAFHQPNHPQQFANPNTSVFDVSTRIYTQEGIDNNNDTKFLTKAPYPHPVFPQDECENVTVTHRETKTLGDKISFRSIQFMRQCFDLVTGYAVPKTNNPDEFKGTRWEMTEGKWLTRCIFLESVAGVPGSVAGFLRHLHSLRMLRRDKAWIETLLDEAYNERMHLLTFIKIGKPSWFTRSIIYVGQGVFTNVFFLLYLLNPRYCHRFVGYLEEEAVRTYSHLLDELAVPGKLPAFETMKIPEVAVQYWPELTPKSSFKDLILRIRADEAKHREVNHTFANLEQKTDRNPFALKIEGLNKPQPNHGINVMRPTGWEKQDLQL
SMILES,IC50 (cytochrome bc1 complex) [µM],"IC50 (C. albicans Aox2 (rAox2); NADH, 65 mM MOPS pH 7.5, 1 mM KCN, 10 mM GMP, 10 min preincubation) [µM]",IC50 (C. albicans Aox2 (rAox2)) [µM]
"Cc1c(Br)c(O)c(CCCCCCCCCCCC[P+](c2ccccc2)(c2ccccc2)c2ccccc2)c(O)c1C=O [ALTOX094, (12-(3-Bromo-5-formyl-2,6-dihydroxy-4-methylphenyl)dodecyl)triphenylphosphonium bromide]",9.1 ± 1.2,15 ± 1,–
"CC(C)=CCC/C(C)=C/Cc1c(O)c(Br)c(C)c(C=O)c1O [ISSF31, (E)-3-Bromo-5-(3,7-dimethylocta-2,6-dien-1-yl)-4,6-dihydroxy-2-methylbenzaldehyde]",1.2 ± 0.6,–,0.0211 ± 0.008
CC(C)=CCC/C(C)=C/Cc1c(O)c(Cl)c(C)c(C=O)c1O [Colletochlorin B],1.1 ± 0.1,–,0.0073 ± 0.0024
"Cc1c(Br)c(O)c(CCCCCCCC[P+](c2ccccc2)(c2ccccc2)c2ccccc2)c(O)c1C=O [ALTOX102, (8-(3-Bromo-5-formyl-2,6-dihydroxy-4-methylphenyl)octyl)triphenylphosphonium bromide]",5.8 ± 1.4,–,11.1 ± 1
